Patent US12077503B2, “Substituted cyclic amides and their use as herbicides” (FMC CORPORATION, priority 2015, dated 2024)

Columns and labels:
Format in all cases: in vivo
[1] = system: wheat (Triticum aestivum); test: Test A postemergence; settings: Triticum aestivum, post-emergence, 240 h, Postemergence, 31 g ai/ha; 0 is no effect, 100 is complete control; read-out: Wheat plant response rating (0 to 100 scale)
Procedure, shortened: (§1)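 Visual injury, scored on a 0–100 scale relative to untreated controls, was recorded about 10 d after application. Treatments were a preemergence soil spray over planted seeds or a postemergence spray on plants at the one- to two-leaf stage, 2 to 10 cm tall, all in loam soil–sand blend in the greenhouse.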

[2] = system: blackgrass (Alopecurus myosuroides); test: Test A postemergence; settings: Alopecurus myosuroides, post-emergence, 240 h, read-out: Blackgrass plant response rating (0 to 100 scale)
Procedure, shortened: as §1

[3] = system: Galium (catchweed bedstraw, Galium aparine); test: Test A postemergence; settings: Galium, post-emergence, 240 h, read-out: Galium plant response rating (0 to 100 scale)
Procedure, shortened: as §1

[4] = system: giant foxtail (Setaria faberii); test: Test A postemergence; settings: Setaria faberi, post-emergence, 240 h, read-out: Foxtail, Giant plant response rating (0 to 100 scale)
Procedure, shortened: as §1

[5] = system: Kochia (Kochia scoparia); test: Test A postemergence; settings: Bassia scoparia, post-emergence, 240 h, read-out: Kochia plant response rating (0 to 100 scale)
Procedure, shortened: as §1

[6] = system: corn (Zea mays); test: Test A postemergence; settings: Zea mays, post-emergence, 240 h, read-out: Corn plant response rating (0 to 100 scale)
Procedure, shortened: as §1

[7] = system: ragweed (common ragweed, Ambrosia elatior); test: Test A postemergence; settings: Ambrosia artemisiifolia, post-emergence, 240 h, read-out: Ragweed plant response rating (0 to 100 scale)
Procedure, shortened: as §1

[8] = system: ryegrass, Italian (Italian ryegrass, Lolium multiflorum); test: Test A postemergence; settings: Lolium multiflorum, post-emergence, 240 h, read-out: Ryegrass, Italian plant response rating (0 to 100 scale)
Procedure, shortened: as §1

[9] = system: pigweed (Amaranthus retroflexus); test: Test A postemergence; settings: Amaranthus retroflexus, post-emergence, 240 h, read-out: Pigweed plant response rating (0 to 100 scale)
Procedure, shortened: as §1

[10] = system: barnyardgrass (Echinochloa crus-galli); test: Test A postemergence; settings: Echinochloa crus-galli, post-emergence, 240 h, read-out: Barnyardgrass plant response rating (0 to 100 scale)
Procedure, shortened: as §1

[11] = system: giant foxtail (Setaria faberii); test: Test A preemergence; settings: Setaria faberi, pre-emergence, 240 h, 0 to 100 scale where 0 is no effect and 100 is complete control, read-out: Foxtail, Giant plant response rating
Procedure, shortened: as §1

[12] = system: Kochia (Kochia scoparia); test: Test A preemergence; settings: Bassia scoparia, pre-emergence, 240 h, 0 to 100 scale where 0 is no effect and 100 is complete control, read-out: Kochia plant response rating
Procedure, shortened: as §1

[13] = system: ragweed (common ragweed, Ambrosia elatior); test: Test A preemergence; settings: Ambrosia artemisiifolia, pre-emergence, 240 h, 0 to 100 scale where 0 is no effect and 100 is complete control, read-out: Ragweed plant response rating
Procedure, shortened: as §1

[14] = system: ryegrass, Italian (Italian ryegrass, Lolium multiflorum); test: Test A preemergence; settings: Lolium multiflorum, pre-emergence, 240 h, 0 to 100 scale where 0 is no effect and 100 is complete control, read-out: Ryegrass, Italian plant response rating
Procedure, shortened: as §1

[15] = system: pigweed (Amaranthus retroflexus); test: Test A preemergence; settings: Amaranthus retroflexus, pre-emergence, 240 h, 0 to 100 scale where 0 is no effect and 100 is complete control, read-out: Pigweed plant response rating
[16] = system: barnyardgrass (Echinochloa crus-galli); test: Test A preemergence; settings: Echinochloa crus-galli, pre-emergence, 240 h, 0 to 100 scale where 0 is no effect and 100 is complete control, read-out: Barnyardgrass plant response rating
Procedure, shortened: as §1

[17] = system: ducksalad (Heteranthera limosa); test: Test B flooded paddy test; settings: Heteranthera limosa, 250 g ai/ha, Flood; 0 to 100 scale where 0 is no effect and 100 is complete control; read-out: Ducksalad plant response rating
Procedure, shortened: (§2)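 Percent control, visually estimated after 13–15 d in the greenhouse on a 0–100 basis, compares treated pots with untreated ones; compound was put into paddy water 3 cm above the soil when plants had two leaves.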

[18] = system: rice (Oryra sativa); test: Test B flooded paddy test; settings: Oryza sativa, 250 g ai/ha, Flood; 0 to 100 scale where 0 is no effect and 100 is complete control; read-out: Rice plant response rating
Procedure, shortened: as §2

[19] = system: sedge, umbrella (small-flower umbrella sedge, Cyperus difformis); test: Test B flooded paddy test; settings: Cyperus difformis, 250 g ai/ha, Flood; 0 to 100 scale where 0 is no effect and 100 is complete control; read-out: Sedge, Umbrella plant response rating
Procedure, shortened: as §2

[20] = system: barnyardgrass (Echinochloa crus-galli); test: Test B flooded paddy test; settings: Echinochloa crus-galli, 250 g ai/ha, Flood; 0 to 100 scale where 0 is no effect and 100 is complete control; read-out: Barnyardgrass plant response rating
Procedure, shortened: as §2

[21] = 125 g ai/ha, postemergence, visual injury vs untreated controls after approx. 10 d, 0 = no effect, 100 = complete control
[22] = Postemergence, 31 g ai/ha, 0 is no effect, 100 is complete control
[23] = 125 g ai/ha, preemergence, visual injury rating, approximately 10 d

Cn1ccc2ccc([C@H]3CNC(=O)[C@@H]3C(=O)Nc3ccccc3F)cc21 [Compound 1264]
0%: plant injury at 31 g/ha [1] | pest or weed control at 125 g/ha [2, 21] | pest or weed control at 31 g/ha [2, 22] | pest or weed control at 125 g/ha [3, 21] | pest or weed control at 31 g/ha [3, 22] | pest or weed control at 125 g/ha [4, 21] | pest or weed control at 31 g/ha [4, 22] | pest or weed control at 125 g/ha [5, 21] | pest or weed control at 31 g/ha [5, 22] | plant injury at 125 g/ha [6, 21] | plant injury at 31 g/ha [6, 22] | pest or weed control at 125 g/ha [7, 21] | pest or weed control at 31 g/ha [7, 22] | pest or weed control at 125 g/ha [8, 21] | pest or weed control at 31 g/ha [8, 22] | pest or weed control at 125 g/ha [9, 21] | pest or weed control at 31 g/ha [9, 22] | pest or weed control at 125 g/ha [10, 21] | pest or weed control at 31 g/ha [10, 22] | pest or weed control at 31 g/ha ([11]; 31 g ai/ha, Preemergence) | pest or weed control at 125 g/ha [11, 23] | pest or weed control at 31 g/ha ([12]; 31 g ai/ha, Preemergence) | pest or weed control at 125 g/ha [12, 23] | pest or weed control at 31 g/ha ([13]; 31 g ai/ha, Preemergence) | pest or weed control at 125 g/ha [13, 23] | pest or weed control at 31 g/ha ([14]; 31 g ai/ha, Preemergence) | pest or weed control at 125 g/ha [14, 23] | pest or weed control at 31 g/ha ([15]; 31 g ai/ha, Preemergence) | pest or weed control at 125 g/ha [15, 23] | pest or weed control at 31 g/ha ([16]; 31 g ai/ha, Preemergence) | pest or weed control at 125 g/ha [16, 23] | pest or weed control at 250 g/ha [17] | pest or weed control at 250 g/ha [18] | pest or weed control at 250 g/ha [19] | pest or weed control at 250 g/ha [20]
